Like-named read-outs stand apart in the source and are kept apart here.
Legend:
[1] = target: T1, hCA I (Homo sapiens, UniProt P00915); assay: esterase inhibition assay; type: biochemical
T1 construct: gene CA1; native enzyme purified from human blood; cytosolic isoform
Description: esterase inhibition assay on hCA I

[2] = target: T2, hCA II (Homo sapiens, UniProt P00918); assay: esterase inhibition assay; type: biochemical
T2 construct: gene CA2; native enzyme purified from human blood; cytosolic isoform
Description: esterase inhibition assay on hCA II

[3] = substrate 4-nitrophenyl acetate

T1 sequence (P00915 2-261): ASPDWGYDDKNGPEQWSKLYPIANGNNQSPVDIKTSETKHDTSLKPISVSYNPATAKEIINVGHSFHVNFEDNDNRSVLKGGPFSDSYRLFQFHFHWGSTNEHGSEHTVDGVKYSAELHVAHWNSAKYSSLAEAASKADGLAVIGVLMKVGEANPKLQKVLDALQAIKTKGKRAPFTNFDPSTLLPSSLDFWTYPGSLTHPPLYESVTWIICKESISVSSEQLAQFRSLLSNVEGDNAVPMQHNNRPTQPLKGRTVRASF

Row | Structure (SMILES) | Ki [1] | Ki [2] | Ki [1, 3] | Ki [2, 3]
1 | NS(=O)(=O)c1cccc(N=NNc2ccccc2Br)c1 [compound 12, 3-(3-(2-Bromophenyl)triaz-1-en-1-yl) benzenesulfonamide] | 61 ± 1 nM | 40 ± 2 nM | – | –
2 | COc1ccc(/N=N/Nc2cccc(S(N)(=O)=O)c2)cc1 [compound 5, 3-(3-(4-Methoxyphenyl)triaz-1-en-1-yl) benzenesulfonamide] | 42 ± 8 nM | 21 ± 4 nM | – | –
3 | CCc1ccc(NN=Nc2cccc(S(N)(=O)=O)c2)cc1 [compound 6, 3-(3-(4-Ethylphenyl)triaz-1-en-1-yl) benzenesulfonamide] | 49 ± 2 nM | 16 ± 2 nM | – | –
4 | NS(=O)(=O)c1cccc(N=NNc2cccc(Cl)c2)c1 [compound 7, 3-(3-(3-Chlorophenyl)triaz-1-en-1-yl) benzenesulfonamide] | 53 ± 15 nM | 22 ± 6 nM | – | –
5 | NS(=O)(=O)c1cccc(N=NNc2ccc(F)cc2)c1 [compound 2, 3-(3-(4-Fluorophenyl)triaz-1-en-1-yl) benzenesulfonamide] | – | 21 ± 9 nM | 21 ± 4 nM | –
6 | NS(=O)(=O)c1cccc(N=NNc2ccc(Br)cc2)c1 [compound 3, 3-(3-(4-Bromophenyl)triaz-1-en-1-yl) benzenesulfonamide] | 57 ± 3 nM | 19 ± 4 nM | – | –
7 | NS(=O)(=O)c1cccc(N=NNc2cccc(F)c2)c1 [compound 8, 3-(3-(3-Fluorophenyl)triaz-1-en-1-yl) benzenesulfonamide] | 36 ± 3 nM | 28 ± 6 nM | – | –
8 | CCOc1ccc(NN=Nc2cccc(S(N)(=O)=O)c2)cc1 [compound 4, 3-(3-(4-Ethoxyphenyl)triaz-1-en-1-yl) benzenesulfonamide] | 38 ± 4 nM | – | – | 16 ± 6 nM
9 | NS(=O)(=O)c1cccc(N=NNc2ccccc2)c1 [compound 1, 3–(3-Pheynltriaz-1-en-1-yl)benzenesulfonamide] | 28 ± 6 nM | 18 ± 5 nM | – | –
10 | COc1cccc(NN=Nc2cccc(S(N)(=O)=O)c2)c1 [compound 9, 3-(3-(3-Methoxyphenyl)triaz-1-en-1-yl) benzenesulfonamide] | 33 ± 5 nM | 23 ± 2 nM | – | –
11 | NS(=O)(=O)c1cccc(N=NNc2ccccc2Cl)c1 [compound 10, 3-(3-(2-Chlorophenyl)triaz-1-en-1-yl) benzenesulfonamide] | 46 ± 12 nM | 20 ± 5 nM | – | –
12 | NS(=O)(=O)c1cccc(N=NNc2ccccc2F)c1 [compound 11, 3-(3-(2-Fluorophenyl)triaz-1-en-1-yl) benzenesulfonamide] | 72 ± 2 nM | 33 ± 9 nM | – | –

Reference: article PMC6913647, “Novel sulphonamides incorporating triazene moieties show powerful carbonic anhydrase I and II inhibitory properties” (Journal of Enzyme Inhibition and Medicinal Chemistry, 2019)
